Source: PubChem BioAssay (NCI)
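Step 1: Grow cells in 96-well plates. Step 2: Expose to compound for 48 hours at 5 concentrations. Step 3: Interpolate endpoints linearly; if unreached, use highest concentration. TGI: concentration producing complete growth inhibition.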

Experiments:
Test in all cases: NCI anticancer screen, dose series, 48 h
786-0 renal = system: 786-0 renal
NCI-H460 lung = system: NCI-H460 lung
MCF7 breast = system: MCF7 breast
SF-539 CNS = system: SF-539 CNS
OVCAR-5 ovarian = system: OVCAR-5 ovarian
SK-MEL-28 melanoma = system: SK-MEL-28 melanoma
HCT-15 colon = system: HCT-15 colon
DU-145 prostate = system: DU-145 prostate
SF-295 CNS = system: SF-295 CNS
SR leukemia = system: SR leukemia
KM12 colon = system: KM12 colon
MALME-3M melanoma = system: MALME-3M melanoma
A498 renal = system: A498 renal
OVCAR-3 ovarian = system: OVCAR-3 ovarian
OVCAR-8 ovarian = system: OVCAR-8 ovarian
MDA-N = system: MDA-N
RXF 393 renal = system: RXF 393 renal
MDA-MB-231 breast = system: MDA-MB-231 breast
OVCAR-4 ovarian = system: OVCAR-4 ovarian
SN12C renal = system: SN12C renal
SNB-19 CNS = system: SNB-19 CNS
TK-10 renal = system: TK-10 renal
CCRF-CEM leukemia = system: CCRF-CEM leukemia
SNB-75 CNS = system: SNB-75 CNS
COLO 205 colon = system: COLO 205 colon
A549 NSCLC = system: A549 NSCLC
ACHN renal = system: ACHN renal
NCI-H226 lung = system: NCI-H226 lung
LOX IMVI melanoma = system: LOX IMVI melanoma
SK-MEL-5 melanoma = system: SK-MEL-5 melanoma
HCC-2998 colon = system: HCC-2998 colon
PC-3 prostate = system: PC-3 prostate
UACC-257 melanoma = system: UACC-257 melanoma
M14 melanoma = system: M14 melanoma
U251 CNS = system: U251 CNS
HOP-62 NSCLC = system: HOP-62 NSCLC
SW-620 colon = system: SW-620 colon
HL-60(TB) leukemia = system: HL-60(TB) leukemia
EKVX NSCLC = system: EKVX NSCLC
K-562 leukemia = system: K-562 leukemia
SK-OV-3 ovarian = system: SK-OV-3 ovarian
CAKI-1 renal = system: CAKI-1 renal
SF-268 CNS = system: SF-268 CNS
HCT-116 colon = system: HCT-116 colon
NCI-H522 lung = system: NCI-H522 lung
BT-549 breast = system: BT-549 breast
MOLT-4 leukemia = system: MOLT-4 leukemia
NCI-H23 lung = system: NCI-H23 lung
HS 578T breast = system: HS 578T breast
RPMI-8226 leukemia = system: RPMI-8226 leukemia
IGROV1 ovarian = system: IGROV1 ovarian
SK-MEL-2 melanoma = system: SK-MEL-2 melanoma
MDA-MB-435 = system: MDA-MB-435
HOP-92 NSCLC = system: HOP-92 NSCLC
T-47D breast = system: T-47D breast
UACC-62 melanoma = system: UACC-62 melanoma
HT29 colon = system: HT29 colon

## O=C1OC(c2ccco2)=N/C1=C\c1ccc(Cl)c(Cl)c1
786-0 renal
  TGI: > 100 µM
NCI-H460 lung
  TGI: > 100 µM
MCF7 breast
  TGI: > 100 µM
SF-539 CNS
  TGI: > 100 µM
OVCAR-5 ovarian
  TGI: > 100 µM
SK-MEL-28 melanoma
  TGI: > 100 µM
HCT-15 colon
  TGI: > 100 µM
DU-145 prostate
  TGI: > 100 µM
SF-295 CNS
  TGI: > 100 µM
SR leukemia
  TGI: > 100 µM
KM12 colon
  TGI: > 100 µM
MALME-3M melanoma
  TGI: > 100 µM
A498 renal
  TGI: > 100 µM
OVCAR-3 ovarian
  TGI: > 100 µM
OVCAR-8 ovarian
  TGI: > 100 µM
MDA-N
  TGI: > 100 µM
RXF 393 renal
  TGI: > 100 µM
MDA-MB-231 breast
  TGI: > 100 µM
OVCAR-4 ovarian
  TGI: > 100 µM
SN12C renal
  TGI: > 100 µM
SNB-19 CNS
  TGI: > 100 µM
TK-10 renal
  TGI: > 100 µM
CCRF-CEM leukemia
  TGI: > 100 µM
SNB-75 CNS
  TGI: > 100 µM
COLO 205 colon
  TGI: > 100 µM
A549 NSCLC
  TGI: > 100 µM
ACHN renal
  TGI: > 100 µM
NCI-H226 lung
  TGI: > 100 µM
LOX IMVI melanoma
  TGI: > 100 µM
SK-MEL-5 melanoma
  TGI: > 100 µM
HCC-2998 colon
  TGI: > 100 µM
PC-3 prostate
  TGI: > 100 µM
UACC-257 melanoma
  TGI: > 100 µM
M14 melanoma
  TGI: > 100 µM
U251 CNS
  TGI: > 100 µM
HOP-62 NSCLC
  TGI: 94.6 µM
SW-620 colon
  TGI: > 100 µM
HL-60(TB) leukemia
  TGI: > 100 µM
EKVX NSCLC
  TGI: > 100 µM
K-562 leukemia
  TGI: > 100 µM
SK-OV-3 ovarian
  TGI: > 100 µM
CAKI-1 renal
  TGI: > 100 µM
SF-268 CNS
  TGI: > 100 µM
HCT-116 colon
  TGI: > 100 µM
NCI-H522 lung
  TGI: > 100 µM
BT-549 breast
  TGI: > 100 µM
MOLT-4 leukemia
  TGI: > 100 µM
NCI-H23 lung
  TGI: > 100 µM
HS 578T breast
  TGI: > 100 µM
RPMI-8226 leukemia
  TGI: > 100 µM
IGROV1 ovarian
  TGI: > 100 µM
SK-MEL-2 melanoma
  TGI: > 100 µM
MDA-MB-435
  TGI: > 100 µM
HOP-92 NSCLC
  TGI: > 100 µM
T-47D breast
  TGI: > 100 µM
UACC-62 melanoma
  TGI: > 100 µM
HT29 colon
  TGI: > 100 µM
